# Molecular target: T1, Met receptor (EGFR/Met chimeric cells, EMR) (Homo sapiens, UniProt P08581)
# T1 construct: expressed in transfected cells; the other entry of the earlier key: EGFR (P00533, Epidermal growth factor receptor)
# Test: Met Autophosphorylation Assay
# Format: biochemical
# Details: protocol P.130
# Method in brief: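 Transiently transfected EGFR/Met chimeric (EMR) cells were lysed in HNTG with 1 mM PMSF. Met was captured on plates coated with goat anti-rabbit IgG, then rabbit anti-Met (C-28), using 90 μg lysate/100 μl for 60 min at room temperature. Phosphotyrosine was read by ELISA.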
# T1 sequence (P08581 with tags, fused parts or gaps): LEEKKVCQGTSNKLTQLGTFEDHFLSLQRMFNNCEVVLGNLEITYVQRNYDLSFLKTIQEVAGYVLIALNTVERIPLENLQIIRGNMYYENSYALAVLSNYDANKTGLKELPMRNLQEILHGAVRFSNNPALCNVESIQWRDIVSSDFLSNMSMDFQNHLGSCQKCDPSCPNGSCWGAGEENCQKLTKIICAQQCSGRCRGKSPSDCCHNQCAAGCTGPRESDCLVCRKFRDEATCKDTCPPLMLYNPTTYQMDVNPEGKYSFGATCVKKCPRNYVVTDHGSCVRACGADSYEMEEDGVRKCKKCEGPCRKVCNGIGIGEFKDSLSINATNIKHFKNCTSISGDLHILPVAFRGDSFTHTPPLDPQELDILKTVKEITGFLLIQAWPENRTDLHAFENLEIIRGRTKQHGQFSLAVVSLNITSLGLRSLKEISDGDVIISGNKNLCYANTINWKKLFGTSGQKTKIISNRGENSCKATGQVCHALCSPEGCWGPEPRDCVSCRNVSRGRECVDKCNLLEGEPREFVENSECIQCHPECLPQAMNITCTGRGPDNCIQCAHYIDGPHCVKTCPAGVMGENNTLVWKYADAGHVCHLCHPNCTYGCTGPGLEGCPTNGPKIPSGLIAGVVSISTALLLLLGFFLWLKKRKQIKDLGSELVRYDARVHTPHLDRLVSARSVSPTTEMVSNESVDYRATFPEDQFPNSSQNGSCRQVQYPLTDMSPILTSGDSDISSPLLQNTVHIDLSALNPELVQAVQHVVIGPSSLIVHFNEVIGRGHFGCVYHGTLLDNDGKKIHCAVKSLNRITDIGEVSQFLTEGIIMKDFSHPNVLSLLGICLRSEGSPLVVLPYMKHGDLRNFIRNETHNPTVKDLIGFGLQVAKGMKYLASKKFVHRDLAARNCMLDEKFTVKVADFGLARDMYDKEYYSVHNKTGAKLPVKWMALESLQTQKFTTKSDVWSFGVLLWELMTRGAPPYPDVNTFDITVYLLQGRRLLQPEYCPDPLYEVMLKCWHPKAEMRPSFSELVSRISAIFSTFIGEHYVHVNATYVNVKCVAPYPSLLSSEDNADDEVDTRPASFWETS
row,SMILES,Met Kinase % Inhibition (P.130)
1,COC1CCCN1C=C1C(=O)Nc2c(Br)cc(Br)cc21 (racemic) [10740/A04],48.2%
2,COC1CCCN1C=C1C(=O)Nc2ccc(I)cc21 (racemic) [10740/B04],76.7%
3,Cc1c(Br)cc(Br)c2c1C(=Cc1ccc(CO)o1)C(=O)N2 [10739/H11],75.8%
4,O=C1Nc2c(Br)cc(Br)cc2C1=Cc1cnc2ccccc2c1 [10740/A02],56.3%
5,O=C1Nc2c(Br)cc(Br)cc2C1=Cc1ccnc2ccccc12 [10740/A03],77.8%
6,O=C1Nc2c(Br)cc(Br)cc2C1=Cc1ccsc1 [10740/A05],79.5%
7,O=C1Nc2c(Br)cc(Br)cc2C1=Cc1ccc2ccccc2n1 [10740/A06],48.5%
8,Cn1cc(C=C2C(=O)Nc3c(Br)cc(Br)cc32)c2ccccc21 [10740/A07],54.9%
9,Cc1[nH]c2ccccc2c1C=C1C(=O)Nc2c(Br)cc(Br)cc21 [10740/A08],43.2%
10,O=C1Nc2c(Br)cc(Br)cc2C1=Cc1cc(Br)cs1 [10740/A10],45.1%
11,CCCCOc1ccc(C=C2C(=O)Nc3c(Br)cc(Br)cc32)cc1 [10740/A11],30.3%
12,O=C1Nc2ccc(I)cc2C1=Cc1cnc2ccccc2c1 [10740/B02],79.2%
13,O=C1Nc2ccc(I)cc2C1=Cc1ccnc2ccccc12 [10740/B03],84.8%
14,O=C1Nc2ccc(I)cc2C1=Cc1ccsc1 [10740/B05],82.3%
15,O=C1Nc2ccc(I)cc2C1=Cc1ccc2ccccc2n1 [10740/B06],68.9%
16,Cn1cc(C=C2C(=O)Nc3ccc(I)cc32)c2ccccc21 [10740/B07],73.7%
17,Cc1[nH]c2ccccc2c1C=C1C(=O)Nc2ccc(I)cc21 [10740/B08],65.0%
18,O=C1Nc2ccc(I)cc2C1=Cc1cc(Br)cs1 [10740/B10],58.0%
19,CCCCOc1ccc(C=C2C(=O)Nc3ccc(I)cc32)cc1 [10740/B11],68.6%
20,Cc1c(Br)ccc2c1C(=Cc1cnc3ccccc3c1)C(=O)N2 [10740/C02],45.1%
21,Cc1c(Br)ccc2c1C(=Cc1ccnc3ccccc13)C(=O)N2 [10740/C03],63.6%
22,COC1CCCN1C=C1C(=O)Nc2ccc(Br)c(C)c21 (stereo not shown) [10740/C04],−4.9%
23,Cc1c(Br)ccc2c1C(=Cc1ccsc1)C(=O)N2 [10740/C05],66.1%
24,Cc1c(Br)ccc2c1C(=Cc1ccc3ccccc3n1)C(=O)N2 [10740/C06],49.3%
25,Cc1c(Br)ccc2c1C(=Cc1cn(C)c3ccccc13)C(=O)N2 [10740/C07],44.3%

row,SMILES,Met Kinase % Inhibition (P.130)
1,Cc1[nH]c2ccccc2c1C=C1C(=O)Nc2ccc(Br)c(C)c21 [10740/C08],28.7%
2,Cc1c(Br)ccc2c1C(=Cc1cc(Br)cs1)C(=O)N2 [10740/C10],−1.8%
3,CCCCOc1ccc(C=C2C(=O)Nc3ccc(Br)c(C)c32)cc1 [10740/C11],−10.8%
4,CNS(=O)(=O)c1ccc2c(c1)C(=Cc1cnc3ccccc3c1)C(=O)N2 [10740/D02],49.9%
5,CNS(=O)(=O)c1ccc2c(c1)C(=Cc1ccnc3ccccc13)C(=O)N2 [10740/D03],64.4%
6,CNS(=O)(=O)c1ccc2c(c1)C(=CN1CCCC1OC)C(=O)N2 (stereo not shown) [10740/D04],19.4%
7,CNS(=O)(=O)c1ccc2c(c1)C(=Cc1ccsc1)C(=O)N2 [10740/D05],39.3%
8,CNS(=O)(=O)c1ccc2c(c1)C(=Cc1ccc3ccccc3n1)C(=O)N2 [10740/D06],41.8%
9,CNS(=O)(=O)c1ccc2c(c1)C(=Cc1cn(C)c3ccccc13)C(=O)N2 [10740/D07],27.3%
10,CNS(=O)(=O)c1ccc2c(c1)C(=Cc1c(C)[nH]c3ccccc13)C(=O)N2 [10740/D08],30.3%
11,CNS(=O)(=O)c1ccc2c(c1)C(=Cc1cc(Br)cs1)C(=O)N2 [10740/D10],16.1%
12,CCCCOc1ccc(C=C2C(=O)Nc3ccc(S(=O)(=O)NC)cc32)cc1 [10740/D11],−9.1%
13,O=C1Nc2ccc(S(=O)(=O)Nc3ccc(C(F)(F)F)cc3)cc2C1=Cc1cnc2ccccc2c1 [10740/E02],48.2%
14,O=C1Nc2ccc(S(=O)(=O)Nc3ccc(C(F)(F)F)cc3)cc2C1=Cc1ccnc2ccccc12 [10740/E03],66.4%
15,COC1CCCN1C=C1C(=O)Nc2ccc(S(=O)(=O)Nc3ccc(C(F)(F)F)cc3)cc21 (stereo not shown) [10740/E04],41.8%
16,O=C1Nc2ccc(S(=O)(=O)Nc3ccc(C(F)(F)F)cc3)cc2C1=Cc1ccsc1 [10740/E05],75.6%
17,O=C1Nc2ccc(S(=O)(=O)Nc3ccc(C(F)(F)F)cc3)cc2C1=Cc1ccc2ccccc2n1 [10740/E06],16.6%
18,Cn1cc(C=C2C(=O)Nc3ccc(S(=O)(=O)Nc4ccc(C(F)(F)F)cc4)cc32)c2ccccc21 [10740/E07],19.7%
19,Cc1[nH]c2ccccc2c1C=C1C(=O)Nc2ccc(S(=O)(=O)Nc3ccc(C(F)(F)F)cc3)cc21 [10740/E08],39.0%
20,O=C1Nc2ccc(S(=O)(=O)Nc3ccc(C(F)(F)F)cc3)cc2C1=Cc1cc(Br)cs1 [10740/E10],61.9%
21,CCCCOc1ccc(C=C2C(=O)Nc3ccc(S(=O)(=O)Nc4ccc(C(F)(F)F)cc4)cc32)cc1 [10740/E11],−16.9%
22,O=C1Nc2ccc(S(=O)(=O)N3CCOCC3)cc2C1=Cc1cnc2ccccc2c1 [10740/F02],59.4%
23,O=C1Nc2ccc(S(=O)(=O)N3CCOCC3)cc2C1=Cc1ccnc2ccccc12 [10740/F03],32.8%
24,COC1CCCN1C=C1C(=O)Nc2ccc(S(=O)(=O)N3CCOCC3)cc21 (stereo not shown) [10740/F04],−5.2%
25,O=C1Nc2ccc(S(=O)(=O)N3CCOCC3)cc2C1=Cc1ccsc1 [10740/F05],52.1%

row,SMILES,Met Kinase % Inhibition (P.130)
1,O=C1Nc2ccc(S(=O)(=O)N3CCOCC3)cc2C1=Cc1ccc2ccccc2n1 [10740/F06],25.3%
2,Cn1cc(C=C2C(=O)Nc3ccc(S(=O)(=O)N4CCOCC4)cc32)c2ccccc21 [10740/F07],28.4%
3,Cc1[nH]c2ccccc2c1C=C1C(=O)Nc2ccc(S(=O)(=O)N3CCOCC3)cc21 [10740/F08],35.9%
4,O=C1Nc2ccc(S(=O)(=O)N3CCOCC3)cc2C1=Cc1cc(Br)cs1 [10740/F10],58.3%
5,CCCCOc1ccc(C=C2C(=O)Nc3ccc(S(=O)(=O)N4CCOCC4)cc32)cc1 [10740/F11],42.9%
6,O=C1Nc2ccc(CCCl)cc2C1=Cc1cnc2ccccc2c1 [10740/G02],55.2%
7,O=C1Nc2ccc(CCCl)cc2C1=Cc1ccnc2ccccc12 [10740/G03],34.8%
8,COC1CCCN1C=C1C(=O)Nc2ccc(CCCl)cc21 (stereo not shown) [10740/G04],9.1%
9,O=C1Nc2ccc(CCCl)cc2C1=Cc1ccsc1 [10740/G05],30.3%
10,O=C1Nc2ccc(CCCl)cc2C1=Cc1ccc2ccccc2n1 [10740/G06],25.0%
11,Cn1cc(C=C2C(=O)Nc3ccc(CCCl)cc32)c2ccccc21 [10740/G07],10.8%
12,Cc1[nH]c2ccccc2c1C=C1C(=O)Nc2ccc(CCCl)cc21 [10740/G08],33.4%
13,O=C1Nc2ccc(CCCl)cc2C1=Cc1cc(Br)cs1 [10740/G10],19.4%
14,CCCCOc1ccc(C=C2C(=O)Nc3ccc(CCCl)cc32)cc1 [10740/G11],13.3%
15,Cc1c(Br)cc(Br)c2c1C(=Cc1cnc3ccccc3c1)C(=O)N2 [10740/H02],28.7%
16,Cc1c(Br)cc(Br)c2c1C(=Cc1ccnc3ccccc13)C(=O)N2 [10740/H03],17.5%
17,COC1CCCN1C=C1C(=O)Nc2c(Br)cc(Br)c(C)c21 (stereo not shown) [10740/H04],30.9%
18,Cc1c(Br)cc(Br)c2c1C(=Cc1ccsc1)C(=O)N2 [10740/H05],25.6%
19,Cc1c(Br)cc(Br)c2c1C(=Cc1ccc3ccccc3n1)C(=O)N2 [10740/H06],33.4%
20,Cc1c(Br)cc(Br)c2c1C(=Cc1cn(C)c3ccccc13)C(=O)N2 [10740/H07],1.5%
21,Cc1[nH]c2ccccc2c1C=C1C(=O)Nc2c(Br)cc(Br)c(C)c21 [10740/H08],28.1%
22,Cc1c(Br)cc(Br)c2c1C(=Cc1cc(Br)cs1)C(=O)N2 [10740/H10],43.7%
23,CCCCOc1ccc(C=C2C(=O)Nc3c(Br)cc(Br)c(C)c32)cc1 [10740/H11],17.2%
